Test [1] deals with CaCo2 monolayers. As to the kind of experiment: Trans Epithelial Electric Resistance (TEER) across cell monolayer. Format: cell-based. Details: key to Reduced TEER: + indicates an enhancement of the permeability of the tight junctions were observed; − indicates no enhancement of permeability was observed. The settings on record: Caco-2 monolayer. The text has this: (§1) Agonists of tight junctions can be identified by their ability to enhance the flux of compounds (e.g. ions, Lucifer Yellow) through a cell monolayer that comprises tight junctions; or by their ability to reduce TEER across a cell monolayer that comprises tight junctions. Treatment of CaCo2 monolayers with peptide FCIGRL (SEQ ID NO: 1) led to a 51-fold enhancement of Lucifer Yellow permeability through CaCo2 monolayers compared to vehicle alone. Treatment of CaCo2 monolayers with peptide FCIGRL led to a 16-fold decrease in TEER across CaCo2 monolayers compared to vehicle alone.
(§2) Determination of TEER and Lucifer Yellow Flux
(§3) Prepare Modified Hank's Balanced Salt Solution (MHBSS) by obtaining 1 L bottle of HBSS removing 10 ml of HBSS and replacing it with 10 ml HEPES buffer pH 7.0. Adjust pH to 7.4±0.1 using concentrated NaOH (10N).
(§4) Remove Caco-2 cells from incubator, grown on 12-well, […], polycarbonate Transwell® filters (Corning) and record passage#, date cells seeded and age in days.
(§5) Aspirate cell culture medium from both the apical (AP) and basolateral (BL) compartments, replacing with 0.5 ml and 1.5 ml of MHBSS, respectively. Incubate cells at 37° C. for 30 minutes.
Using the MilliCell®-ERS instrument (Millipore), measure and record the transepithelial electrical resistance (TEER) across each filter and record.
(§6) Aspirate solution from the apical compartment of each filter (n=3 per condition) and replace with 0.5 ml of control and test solutions containing Lucifer Yellow and test compound if appropriate.
(§7) Place all plates into incubator set at 37° C. (±0.2), 50 RPM (±5) for a total of 180 minutes.
At t=30, 60, 120 and 180 minutes, measure and record the transepithelial electrical resistance (TEER) across each filter using the MilliCell-ERS instrument.
(§8) Cells: Caco-2 cells passage 40-60 grown on Transwell® plates for 21-28 days
(§9) Culture Medium: DMEM supplemented with 10% fetal bovine serum, 1% NEAA, 1% Penn/Strep
(§10) Buffers: Hank's Balanced Salt Solution (HBSS) without calcium and magnesium
(§11) Flasks: 100×20 mm Tissue culture dish Falcon.
(§12) Plates: 12 well polycarbonate Transwell® filters; 0.3 uM pore size

The test system of test [2] is CaCo2 monolayers. The test can be described thus: Epithelial flux of Lucifer Yellow through cell monolayer. The format is cell-based. Details: key to Enhanced LY permeability: + indicates an enhancement of the permeability of the tight junctions were observed; − indicates no enhancement of permeability was observed. The settings on record: Lucifer Yellow flux, Caco-2 monolayer.
Description: as §1, §2, §3, §4, §5, §6, §7
At t=60, 120 and 180 minutes remove 100 μl from each basolateral compartment and place it in a 96-well plate for Lucifer Yellow analysis, replace with 100 μl of MHBSS.
Make a Lucifer Yellow standard curve with the following dilutions (7500 μM, 3750 μM, 750 μM, 375 μM, 75 μM, 37.5 μM, 7.5 μM, 3.75 μM, 0.75 μM) and pipette […] of each into a 96-well plate except for the first three standards mentioned above which require a 1:10 dilutions prior to transferring to the 96-well plate.
Harvest the remaining start solutions and what is left in each apical compartment into 1.5 ml vials. Freeze at −20° C. for future analysis.
Analyze each 96-well plate in a Tecan Spectra Fluor Plus using Magellan at 485 and 535 nm.
as §8, §9, §10, §11, §12

The record followed here is patent US20120027720A1, “PEPTIDE CONJUGATES” (priority 2008, published 2012).

Where no end group is shown, it is not given here. [ ]: non-standard residue; d: D form. Phe(4-NO2) = N[C@@H](Cc1ccc([N+](=O)[O-])cc1)C(=O)O; Tic = O=C(O)[C@@H]1Cc2ccccc2CN1; Cha = N[C@@H](CC1CCCCC1)C(=O)O; Cit = NC(=O)NCCC[C@H](N)C(=O)O; AllylGly = C=CC[C@H](N)C(=O)O; hSer = N[C@@H](CCO)C(=O)O

As to “156 (F[Cha]IGRL-OH; also: peptide conjugate) [compound 156]”, in test [1], the “Reduced TEER” value is given as “−”. The “Enhanced LY permeability” value in test [2] is reported as “−”.

Regarding “34 (F[dC][dI]G[dR][dL]; not fully specified) [compound 34]”, the “Reduced TEER” value in test [1] is reported as “−”. The “Enhanced LY permeability” value in test [2] is given as “−”.

In the case of “203 (F[AllylGly]PGRL-NH2; N-terminus assumed; SMILES C=CC[C@H](NC(=O)[C@@H](N)Cc1ccccc1)C(=O)N1CCC[C@H]1C(=O)NCC(=O)N[C@@H](CCCNC(=N)N)C(=O)N[C@@H](CC(C)C)C(N)=O) [compound 203]”, in test [1], the “Reduced TEER” value is given as “−”. In addition, the “Enhanced LY permeability” value in test [2] is on record as “−”.

Regarding “36 ([dL]RGICF; not fully specified; printed as D-Leu-Arg-Gly-Ile-Cys-Phe) [compound 36]”, the “Reduced TEER” value in test [1] is “−”. For the same substance, the “Enhanced LY permeability” value in test [2] was “−”.

As for “172 (F[hSer][dI]GRL; not fully specified; also: peptide conjugate, Xaa: 'may be' homoserine) [compound 172]”, in test [1], the “Reduced TEER” value is “−”. Further, in test [2], the “Enhanced LY permeability” value is reported as “−”.

For the substance “75 (Ac-ACIGRL; not fully specified; printed as Ac-Ala-Cys-Ile-Gly-Arg-Leu) [compound 75]”, the “Reduced TEER” value in test [1] is recorded as “+”. In test [2], the “Enhanced LY permeability” value is recorded as “+”.

In the case of “171 (Ac-F[hSer]IGRL-NH2; also: peptide conjugate) [compound 171]”, the “Reduced TEER” value in test [1] is “−”. Besides, the “Enhanced LY permeability” value in test [2] was “−”.

“208 (F[AllylGly]FGRL-NH2; N-terminus assumed; SMILES C=CC[C@H](NC(=O)[C@@H](N)Cc1ccccc1)C(=O)N[C@@H](Cc1ccccc1)C(=O)NCC(=O)N[C@@H](CCCNC(=N)N)C(=O)N[C@@H](CC(C)C)C(N)=O) [compound 208]”: in test [1], the “Reduced TEER” value is listed as “+”. Besides, the “Enhanced LY permeability” value in test [2] was “+”.

Consider “141 (H-F[hSer]IGRL-OH; SMILES CC[C@H](C)[C@H](NC(=O)[C@H](CCO)NC(=O)[C@@H](N)Cc1ccccc1)C(=O)NCC(=O)N[C@@H](CCCNC(=N)N)C(=O)N[C@@H](CC(C)C)C(=O)O) [compound 141]”, for which the “Enhanced LY permeability” value in test [2] is reported as “+”.

For “101 (H-FCIGR[Cha]-OH; SMILES CC[C@H](C)[C@H](NC(=O)[C@H](CS)NC(=O)[C@@H](N)Cc1ccccc1)C(=O)NCC(=O)N[C@@H](CCCNC(=N)N)C(=O)N[C@@H](CC1CCCCC1)C(=O)O) [compound 101]”, in test [1], the “Reduced TEER” value is reported as “+”. The “Enhanced LY permeability” value in test [2] is “+”.

On to “51 (H-[dA]CIGRG-OH; not fully specified) [compound 51]”, for which the “Reduced TEER” value in test [1] is “+”. For the same substance, the “Enhanced LY permeability” value in test [2] is recorded as “+”.

With “87 (Ac-FLIGRL-NH2; not fully specified) [compound 87]”, in test [1], the “Reduced TEER” value was “+”. Besides, in test [2], the “Enhanced LY permeability” value is listed as “+”.

Regarding “118 (FFLIGRL-NH2; also: peptide conjugate) [compound 118]”, in test [1], the “Reduced TEER” value was “+”. Also, the “Enhanced LY permeability” value in test [2] was “+”.

On to “175 (F[L‑beta‑cyclopropyl‑alanine]IGRL; also: peptide conjugate) [compound 175]”, for which the “Reduced TEER” value in test [1] is reported as “−”. For the same substance, the “Enhanced LY permeability” value in test [2] is “−”.

Turning to “135 (FVIGRL; also: peptide conjugate) [compound 135]”, the “Reduced TEER” value in test [1] is recorded as “+”. Moreover, the “Enhanced LY permeability” value in test [2] is “+”.

Regarding 105 ([Phe(4-NO2)]CIGRL) [compound 105], the “Reduced TEER” value in test [1] is on record as “−”.

As for 109 ([Tic]CIGRL) [compound 109], the “Reduced TEER” value in test [1] was “−”.

Turning to 104 (FCIG[Cit]L) [compound 104], the “Reduced TEER” value in test [1] was “−”.

As to “77 (Ac-ACIGRS; not fully specified; printed as Ac-Ala-Cys-Ile-Gly-Arg-Ser) [compound 77]”, the “Reduced TEER” value in test [1] was “−”.

Turning to “69 (H-FCIGRLC-OH; not fully specified; cysteine pairing not given here) [compound 69]”, in test [1], the “Reduced TEER” value is given as “−”.
